“Also recorded” adds a separate entry of the source.
Assays:
high-fat diet SD rats [1] = test: Improvement of fatty liver in high-fat diet rats (dissection, observation); format: in vivo, rat; details: orally administered, FIGS. 8a and 8b
Excerpt: In order to investigate 3′-SL's effect of improving fatty liver, high-fat diet SD rats were dissected and the liver and other organs were observed.

high-fat diet SD rats [2] = test: Subcutaneous, perirenal and retroperitoneal fat weight in high-fat diet rats; format: in vivo, rat; details: orally administered for 6 weeks, FIG. 7
Method: As described above, 4 week-old SD rats were treated with high-fat diet and 3′-SL for 6 weeks. Then, subcutaneous fat, perirenal fat and retroperitoneal fat were isolated from the rats and weighed.

[3] = test system: high-fat diet C56BL/6 male mice; test: Body weight change and food intake of high-fat diet mice; format: in vivo, mouse; details: for Weight increase / Final weight: peritoneal injection every day; for Comparison of body weight increase, SL vs. ND: compared to normal diet mice
Method: 4 week-old C56BL/6 male mice were purchased from Dooyeul Biotech (Korea). Water was allowed freely and commercially available pellet feed (Dooyeul Biotech, Korea) was given for a week. The mice were grouped into six groups (six per each group) as follows: ND, normal diet group (normal group); HD, high-fat (60% fat) diet [purchased from Research Diets (New Brunswick, USA)] group (control group); and HD+SL (0.1 mg/kg), HD+SL (0.5 mg/kg), HD+SL (1.0 mg/kg) and HD+SL (5.0 mg/kg), high-fat diet groups treated with sialyllactose (SL, Sigma). Sialyllactose or PBS was administered every day by peritoneal injection. The mice were kept in cages for 50 days and sacrificed after fasting for 12 hours. Food intake and body weight change were measured every 7 days. 3′-Sialyllactose (3′-N-acetylneuraminyl-D-lactose, 3′-sialyl-D-lactose or α-NeuNAc-(2→3)-β-D-Gal-(1→4)-D-Glc) and 6′-sialyllactose (6′-N-acetylneuraminyl-lactose, 6′-sialyl-D-lactose or α-NeuNAc-(2→6)-β-D-Gal-(1→4)-D-Glc) were purchased from Sigma-Aldrich.

[4] = test system: high-fat diet C56BL/6 male mice; test: Improvement of fatty liver in high-fat diet mice (dissection, observation); format: in vivo, mouse; details: peritoneally administered, FIG. 4
Excerpt: In order to investigate 3′-SL's effect of improving fatty liver, high-fat diet C56BL/6 male mice were dissected and the liver and other organs were observed.

high-fat diet SD rats [5] = test: Body weight change, food and water intake of high-fat diet rats; format: in vivo, rat; details: orally administered every day, 7 weeks
Method: 4 week-old Sprague-Dawley (SD) rats were purchased from Dooyeul Biotech (Korea). Water was allowed freely and commercially available pellet feed (Dooyeul Biotech, Korea) was given for a week. The rats were grouped into four groups (six per each group) as follows: ND, normal diet group (normal group); HD, high-fat (60% fat) diet [purchased from Research Diets (New Brunswick, USA)] group (control group); and HD+SL (1 mg/kg) and HD+SL (5 mg/kg), high-fat diet groups treated with SL (Sigma). 3′-SL or deionized water (DW) was orally administered every day. The mice were kept in cages for 7 weeks and sacrificed after fasting for 12 hours. Food intake and body weight change were measured every 5 days.

[6] = test system: high-fat diet C56BL/6 male mice; test: Serum lipid and leptin levels in high-fat diet mice; format: in vivo, mouse; details: for Leptin / HDL-cholesterol / HDL/TC / LDL/TC / Total cholesterol (TC) / Triglyceride / LDL-cholesterol: peritoneal injection every day, 50 days; for Leptin: ELISA; for HDL-cholesterol / HDL/TC / LDL/TC / Total cholesterol (TC) / Triglyceride / LDL-cholesterol: serum; for LDL-cholesterol: calculated by Equation 1
Method: (§1) Blood was taken from the liver of the C56BL/6 male mice. The blood was coagulated, centrifuged for 15 minutes at 13,000 rpm, and kept at −20° C. until serum analysis. High-density lipoprotein (HDL)-cholesterol level was measured using an HDL kit (YD Diagnostics, Korea). Triglyceride (TG) was analyzed using a TG kit (YD Diagnostics) based on enzymologic method. Total cholesterol was analyzed using a cholesterol E kit (YD Diagnostics). Low-density lipoprotein (LDL)-cholesterol level was calculated from triglyceride level, total cholesterol level and HDL-cholesterol level according to Equation 1: LDL-cholesterol=total cholesterol−{[…]} Equation 1
Leptin level was measured using a mouse leptin ELISA kit (Millipore) and a rat leptin ELISA kit (Millipore).

high-fat diet SD rats [7] = test: Serum lipid levels in high-fat diet rats; format: in vivo, rat; details: HD + SL 1 mg/kg
Method: as §1
Blood was taken from the liver of the SD rats, and lipid levels were analyzed in the same manner as the experiment with the C57BL/6 male mice.

[8] = high-fat diet + SL 5 mg/kg peritoneally injected, 50 days

CC(=O)N[C@H]1[C@H]([C@H](O)[C@H](O)CO)O[C@@](O[C@H]2[C@@H](O)[C@@H](CO)O[C@@H](O[C@H]3[C@H](O)[C@@H](O)C(O)O[C@@H]3CO)[C@@H]2O)(C(=O)O)C[C@@H]1O (stereo partly drawn) [3′-SL, α-NeuNAc-(2→3)-β-D-Gal-(1→4)-D-Glc]
fatty liver, fat accumulation in liver and other organs (in words) (high-fat diet SD rats [1]): fat accumulation reduced markedly
subcutaneous, perirenal and retroperitoneal fat weight (in words) (high-fat diet SD rats [2]): decreased subcutaneous fat, perirenal fat and retroperitoneal fat in a dose-dependent manner
Weight increase ([3]; HD + SL 0.1 mg/kg): 8.94 ± 0.43 g/50 day
Final weight ([3]; HD + SL 0.1 mg/kg, 50 days): 31.34 ± 1.15 g
Weight increase ([3]; HD + SL 0.5 mg/kg): 7.52 ± 0.74 g/50 day
Final weight ([3]; HD + SL 0.5 mg/kg, 50 days): 30.42 ± 0.51 g
Weight increase ([3]; HD + SL 1.0 mg/kg): 5.60 ± 0.77 g/50 day
Final weight ([3]; HD + SL 1.0 mg/kg, 50 days): 29.00 ± 0.82 g
Weight increase ([3]; HD + SL 5.0 mg/kg): 6.68 ± 0.28 g/50 day
Final weight ([3]; HD + SL 5.0 mg/kg, 50 days): 28.68 ± 0.95 g
Comparison of body weight increase, SL vs. ND [3, 8]: 51.5%
fatty liver, fat accumulation in liver and other organs (in words) [4]: fat accumulation was not observed in the liver or other organs
Final weight (high-fat diet SD rats [5]; HD + SL 1.0 mg/kg): 454.17 ± 10.37 g
Weight increase (high-fat diet SD rats [5]; HD + SL 1.0 mg/kg): 4.05 ± 0.16 g/day
Final weight (high-fat diet SD rats [5]; HD + SL 5.0 mg/kg): 443.33 ± 19.56 g
Weight increase (high-fat diet SD rats [5]; HD + SL 5.0 mg/kg): 3.66 ± 0.32 g/day
Leptin ([6]; HD + SL 0.1 mg/kg): 66.59 ± 43.57 ng/mL
HDL-cholesterol ([6]; HD + SL 0.1 mg/kg): 53.27 ± 5.08 mg/dL
HDL/TC ([6]; HD + SL 0.1 mg/kg): 0.40 ± 0.04
LDL/TC ([6]; HD + SL 0.1 mg/kg): 0.43 ± 0.02
Total cholesterol (TC) ([6]; HD + SL 0.1 mg/kg): 135.05 ± 13.58 mg/dL
Triglyceride ([6]; HD + SL 0.1 mg/kg): 166.78 ± 6.60 mg/dL
LDL-cholesterol ([6]; HD + SL 0.1 mg/kg): 58.16 ± 3.74 mg/dL
Leptin ([6]; HD + SL 0.5 mg/kg): 38.73 ± 5.58 ng/mL
HDL-cholesterol ([6]; HD + SL 0.5 mg/kg): 55.74 ± 3.18 mg/dL
HDL/TC ([6]; HD + SL 0.5 mg/kg): 0.51 ± 0.02
LDL/TC ([6]; HD + SL 0.5 mg/kg): 0.45 ± 0.12
Total cholesterol (TC) ([6]; HD + SL 0.5 mg/kg): 108.25 ± 3.06 mg/dL
Triglyceride ([6]; HD + SL 0.5 mg/kg): 112.99 ± 8.16 mg/dL
LDL-cholesterol ([6]; HD + SL 0.5 mg/kg): 48.43 ± 13.91 mg/dL
Leptin ([6]; HD + SL 1.0 mg/kg): 19.29 ± 14.24 ng/mL
HDL-cholesterol ([6]; HD + SL 1.0 mg/kg): 49.29 ± 3.40 mg/dL
HDL/TC ([6]; HD + SL 1.0 mg/kg): 0.39 ± 0.01
LDL/TC ([6]; HD + SL 1.0 mg/kg): 0.37 ± 0.12
Total cholesterol (TC) ([6]; HD + SL 1.0 mg/kg): 126.30 ± 7.75 mg/dL
Triglyceride ([6]; HD + SL 1.0 mg/kg): 94.28 ± 5.66 mg/dL
LDL-cholesterol ([6]; HD + SL 1.0 mg/kg): 46.03 ± 13.79 mg/dL
Leptin ([6]; HD + SL 5.0 mg/kg): 6.64 ± 2.93 ng/mL
HDL-cholesterol ([6]; HD + SL 5.0 mg/kg): 48.97 ± 1.62 mg/dL
HDL/TC ([6]; HD + SL 5.0 mg/kg): 0.44 ± 0.05
LDL/TC ([6]; HD + SL 5.0 mg/kg): 0.27 ± 0.04
Total cholesterol (TC) ([6]; HD + SL 5.0 mg/kg): 112.97 ± 12.54 mg/dL
Triglyceride ([6]; HD + SL 5.0 mg/kg): 89.78 ± 4.31 mg/dL
LDL-cholesterol ([6]; HD + SL 5.0 mg/kg): 29.91 ± 2.69 mg/dL
effect on serum lipid levels (in words) (high-fat diet SD rats [7]; compared to the control group): higher HDL-cholesterol level and lower LDL-cholesterol, total cholesterol and triglyceride levels as compared to the control group
HDL-cholesterol (high-fat diet SD rats [7]; oral, serum): 88.73 ± 1.32
HDL/total cholesterol (high-fat diet SD rats [7]; oral, serum): 0.52 ± 0.04
LDL/total cholesterol (high-fat diet SD rats [7]; oral, serum): 0.34 ± 0.03
Total cholesterol (high-fat diet SD rats [7]; oral, serum): 171.44 ± 12.8
Triglyceride (high-fat diet SD rats [7]; oral, serum): 149.00 ± 3.86
LDL-cholesterol (high-fat diet SD rats [7]; oral, serum, calculated by Equation 1): 57.91 ± 1.39

CC(=O)N[C@H]1[C@H]([C@H](O)[C@H](O)CO)O[C@@](OC[C@H]2O[C@@H](O[C@H]3[C@H](O)[C@@H](O)[C@H](O)O[C@@H]3CO)[C@H](O)[C@@H](O)[C@H]2O)(C(=O)O)C[C@@H]1O [6′-SL, α-NeuNAc-(2→6)-β-D-Gal-(1→4)-D-Glc]
Weight increase ([3]; HD + SL 0.1 mg/kg): 7.82 ± 1.44(*) g/50 day
Final weight ([3]; HD + SL 0.1 mg/kg, 50 days): 26.82 ± 0.92 g
Weight increase ([3]; HD + SL 0.5 mg/kg): 7.68 ± 2.82(*) g/50 day
Final weight ([3]; HD + SL 0.5 mg/kg, 50 days): 25.74 ± 1.93 g
Weight increase ([3]; HD + SL 1.0 mg/kg): 7.99 ± 1.15(*) g/50 day
Final weight ([3]; HD + SL 1.0 mg/kg, 50 days): 25.62 ± 1.33 g
Weight increase ([3]; HD + SL 5.0 mg/kg): 6.88 ± 1.80(*) g/50 day
Final weight ([3]; HD + SL 5.0 mg/kg, 50 days): 25.92 ± 0.95 g
body weight decrease compared to normal diet mice [3, 8]: 4.7%
Comparison of body weight increase, SL vs. ND [3, 8]: −4.7%
effect on body weight increase (in words) ([3]; high-fat diet mice, peritoneal injection, 50 days): significant decrease in body weight increase; also recorded: more effective in body weight loss than 3′-SL; also recorded: less body weight increase than the normal diet mice
Leptin ([6]; HD + SL 0.1 mg/kg): 11.50 ± 3.72 ng/mL
HDL-cholesterol ([6]; HD + SL 0.1 mg/kg): 70.71 ± 14.15 mg/dL
HDL/TC ([6]; HD + SL 0.1 mg/kg): 0.55 ± 0.08(*)
LDL/TC ([6]; HD + SL 0.1 mg/kg): 0.33 ± 0.07(*)
Total cholesterol (TC) ([6]; HD + SL 0.1 mg/kg): 126.68 ± 10.7 mg/dL
Triglyceride ([6]; HD + SL 0.1 mg/kg): 74.48 ± 3.77 mg/dL
LDL-cholesterol ([6]; HD + SL 0.1 mg/kg): 41.07 ± 6.34 mg/dL
Leptin ([6]; HD + SL 0.5 mg/kg): 6.71 ± 0.93 ng/mL
HDL-cholesterol ([6]; HD + SL 0.5 mg/kg): 76.33 ± 10.53 mg/dL
HDL/TC ([6]; HD + SL 0.5 mg/kg): 0.58 ± 0.05(*)
LDL/TC ([6]; HD + SL 0.5 mg/kg): 0.31 ± 0.05(*)
Total cholesterol (TC) ([6]; HD + SL 0.5 mg/kg): 130.54 ± 8.10 mg/dL
Triglyceride ([6]; HD + SL 0.5 mg/kg): 71.05 ± 5.88 mg/dL
LDL-cholesterol ([6]; HD + SL 0.5 mg/kg): 40.00 ± 4.25 mg/dL
Leptin ([6]; HD + SL 1.0 mg/kg): 5.15 ± 1.61 ng/mL
HDL-cholesterol ([6]; HD + SL 1.0 mg/kg): 57.44 ± 0.87 mg/dL
HDL/TC ([6]; HD + SL 1.0 mg/kg): 0.53 ± 0.03(*)
LDL/TC ([6]; HD + SL 1.0 mg/kg): 0.36 ± 0.02(*)
Total cholesterol (TC) ([6]; HD + SL 1.0 mg/kg): 109.14 ± 9.86 mg/dL
Triglyceride ([6]; HD + SL 1.0 mg/kg): 60.69 ± 7.69 mg/dL
LDL-cholesterol ([6]; HD + SL 1.0 mg/kg): 39.56 ± 8.53 mg/dL
Leptin ([6]; HD + SL 5.0 mg/kg): 6.47 ± 1.64 ng/mL
HDL-cholesterol ([6]; HD + SL 5.0 mg/kg): 62.73 ± 8.58 mg/dL
HDL/TC ([6]; HD + SL 5.0 mg/kg): 0.54 ± 0.05(*)
LDL/TC ([6]; HD + SL 5.0 mg/kg): 0.35 ± 0.10(*)
Total cholesterol (TC) ([6]; HD + SL 5.0 mg/kg): 115.36 ± 14.9 mg/dL
Triglyceride ([6]; HD + SL 5.0 mg/kg): 61.34 ± 3.84 mg/dL
LDL-cholesterol ([6]; HD + SL 5.0 mg/kg): 40.36 ± 2.69 mg/dL
effect on LDL-cholesterol, total cholesterol, triglyceride and leptin levels (in words) ([6]; high-fat diet mice, compared to the high-fat diet group): much better effect of reducing LDL-cholesterol, total cholesterol, triglyceride and leptin levels than 3′-SL
